Results: ChEMBL document CHEMBL6103591, “Discovery of naphthoquinone-furo-piperidone derivatives as dual targeting agents of STAT3 and NQO1 for the treatment of breast cancer” (Eur J Med Chem, 2025)
Active and inactive are the calls of the source. The calls are words filed in the database; no cut-off is given here.

Experiments:
MDA-MB-231 [1] = assay: Antimetastatic activity against human MDA-MB-231 cells assessed as reduction in cell invasion incubated for 24 hrs by crystal violet staining based transwell invasion assay; assay type: functional; conditions: dose 0.1875-3 µM
[2] = biological target: T1, Signal transducer and activator of transcription 3 (Homo sapiens, UniProt P40763); assay: Inhibition of phosphorylated STAT3 nuclear translocation in human MDA-MB-468 cells incubated for 6 hrs by immunofluorescence assay; assay type: cell-based; conditions: dose 1.5-3 µM
T1 sequence (P40763 whole entry): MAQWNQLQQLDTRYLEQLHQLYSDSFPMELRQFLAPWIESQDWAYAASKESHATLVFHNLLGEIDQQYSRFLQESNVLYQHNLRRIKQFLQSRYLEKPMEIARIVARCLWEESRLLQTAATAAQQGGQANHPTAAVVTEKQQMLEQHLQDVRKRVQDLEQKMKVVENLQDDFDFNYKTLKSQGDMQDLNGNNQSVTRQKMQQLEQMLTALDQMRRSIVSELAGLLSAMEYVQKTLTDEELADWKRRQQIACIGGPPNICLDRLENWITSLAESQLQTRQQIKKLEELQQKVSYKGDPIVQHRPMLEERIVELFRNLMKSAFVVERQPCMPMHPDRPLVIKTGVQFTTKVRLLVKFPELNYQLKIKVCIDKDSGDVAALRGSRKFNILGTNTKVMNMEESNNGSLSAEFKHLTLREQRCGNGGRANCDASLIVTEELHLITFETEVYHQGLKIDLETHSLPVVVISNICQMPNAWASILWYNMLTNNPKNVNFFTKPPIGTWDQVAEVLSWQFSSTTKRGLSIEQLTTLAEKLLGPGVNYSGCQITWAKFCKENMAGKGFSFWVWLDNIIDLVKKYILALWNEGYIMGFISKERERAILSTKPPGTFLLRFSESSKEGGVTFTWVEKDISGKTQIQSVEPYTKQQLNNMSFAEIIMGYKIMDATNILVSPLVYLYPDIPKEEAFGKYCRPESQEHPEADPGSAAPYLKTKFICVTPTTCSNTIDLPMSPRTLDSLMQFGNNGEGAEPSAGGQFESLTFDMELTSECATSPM

MDA-MB-231 [3] = assay: Antimetastatic activity against human MDA-MB-231 cells assessed as reduction in cell migration incubated for 24 hrs by crystal violet staining based transwell assay; assay type: functional; conditions: dose 0.1875-3 µM
[4] = biological target: T1, Signal transducer and activator of transcription 3; assay: Inhibition of phosphorylated STAT3 nuclear translocation in human MDA-MB-231 cells incubated for 6 hrs by immunofluorescence assay; assay type: cell-based; conditions: dose 1.5-3 µM
MDA-MB-468 [5] = assay: Induction of apoptosis in human MDA-MB-468 cells assessed as increase in Bax level at 1.5 to 3 uM by Western blotting analysis; assay type: functional, cell-based; conditions: dose 1.5-3 µM
[6] = biological target: T1, Signal transducer and activator of transcription 3; assay: Inhibition of STAT3 activation in human MDA-MB-231 cells assessed as reduction in STAT3 phosphorylation at Tyr705 residue at 1 uM measured after 24 hrs by Western blot analysis relative to control; assay type: cell-based
MCF7 [7] = assay: Induction of ROS generation in NQO1-rich human MCF7 cells assessed as increase in intracellular ROS level at 1.25 uM in presence of DIC by DCFH-DA staining based confocal microscopic analysis; assay type: functional, cell-based
[8] = biological target: T1, Signal transducer and activator of transcription 3; assay: Inhibition of STAT3 in human MDA-MB-231 cells assessed as downregulation of Cyclin-D1 expression measured after 24 hrs by Western blot analysis; assay type: cell-based; conditions: dose 0.6-2.5 µM
MDA-MB-231 [9] = assay: Effect on STAT1 expression level in human MDA-MB-231 cells at 0.6 to 2.5 uM incubated for 24 hrs by Western blot analysis; assay type: functional, cell-based; conditions: dose 0.6-2.5 µM
MDA-MB-231 [10] = assay: Effect on STAT5 expression level in human MDA-MB-231 cells at 0.6 to 2.5 uM incubated for 24 hrs by Western blot analysis; assay type: functional, cell-based; conditions: dose 0.6-2.5 µM
MDA-MB-231 [11] = assay: Antitumor activity against human MDA-MB-231 cells xenografted in female BALB/c nude mouse assessed as reduction in tumor weight at 10 mg/kg, ip administered daily and measured every 2 days for 21 days; assay type: functional, organism-based; conditions: time 21.0 day
MDA-MB-231 [12] = assay: Antitumor activity against human MDA-MB-231 cells xenografted in female BALB/c nude mouse assessed as increase in TUNEL-positive cells in tumor tissue at 10 mg/kg, ip administered daily and measured every 2 days for 21 days by immunofluorescence analysis; assay type: functional, organism-based; conditions: time 21.0 day
MDA-MB-231 [13] = assay: Antiproliferative activity against human MDA-MB-231 cells transfected with shSTAT3 RNA at 1.5 uM incubated for 24 hrs by MTT assay; assay type: functional, cell-based
[14] = biological target: T1, Signal transducer and activator of transcription 3; assay: Inhibition of STAT3 in human MDA-MB-231 cells assessed as downregulation of c-Myc expression measured after 24 hrs by Western blot analysis; assay type: cell-based; conditions: dose 0.6-2.5 µM
MDA-MB-231 [15] = assay: Induction of apoptosis in human MDA-MB-231 cells assessed as increase in cleaved-caspase 3 level at 1.5 to 3 uM by Western blotting analysis; assay type: functional, cell-based; conditions: dose 1.5-3 µM
MCF7 [16] = assay: Induction of DNA damage in human MCF7 cells at 1.25 uM incubated for 24 hrs by fluorescence microscopy based alkaline comet assay; assay type: functional, cell-based
Mus musculus = assay: In vivo inhibition of STAT3 in female BALB/c nude mouse xenografted with human MDA-MB-231 cells assessed as decrease in p-STAT3 level in tumor tissue at 10 mg/kg, ip administered daily and measured every 2 days for 21 days by IHC staining analysis; assay type: functional, organism-based; conditions: time 21.0 day
MDA-MB-468 [17] = assay: Antiproliferative activity against human MDA-MB-468 cells transfected with shSTAT3 RNA at 1.5 uM incubated for 24 hrs by MTT assay; assay type: functional, cell-based
MDA-MB-231 [18] = assay: Antitumor activity against human MDA-MB-231 cells xenografted in female BALB/c nude mouse assessed as reduction in tumor volume at 10 mg/kg, ip administered daily and measured every 2 days for 21 days; assay type: functional, organism-based; conditions: time 21.0 day
[19] = biological target: T2, Signal transducer and activator of transcription 1-alpha/beta (Homo sapiens) (UniProt P42224); assay: Inhibition of STAT1 phosphorylation at Tyr701 residue in human MDA-MB-231 cells at 0.6 to 2.5 uM incubated for 24 hrs by Western blot analysis; assay type: cell-based; conditions: dose 0.6-2.5 µM
T2 sequence (whole entry): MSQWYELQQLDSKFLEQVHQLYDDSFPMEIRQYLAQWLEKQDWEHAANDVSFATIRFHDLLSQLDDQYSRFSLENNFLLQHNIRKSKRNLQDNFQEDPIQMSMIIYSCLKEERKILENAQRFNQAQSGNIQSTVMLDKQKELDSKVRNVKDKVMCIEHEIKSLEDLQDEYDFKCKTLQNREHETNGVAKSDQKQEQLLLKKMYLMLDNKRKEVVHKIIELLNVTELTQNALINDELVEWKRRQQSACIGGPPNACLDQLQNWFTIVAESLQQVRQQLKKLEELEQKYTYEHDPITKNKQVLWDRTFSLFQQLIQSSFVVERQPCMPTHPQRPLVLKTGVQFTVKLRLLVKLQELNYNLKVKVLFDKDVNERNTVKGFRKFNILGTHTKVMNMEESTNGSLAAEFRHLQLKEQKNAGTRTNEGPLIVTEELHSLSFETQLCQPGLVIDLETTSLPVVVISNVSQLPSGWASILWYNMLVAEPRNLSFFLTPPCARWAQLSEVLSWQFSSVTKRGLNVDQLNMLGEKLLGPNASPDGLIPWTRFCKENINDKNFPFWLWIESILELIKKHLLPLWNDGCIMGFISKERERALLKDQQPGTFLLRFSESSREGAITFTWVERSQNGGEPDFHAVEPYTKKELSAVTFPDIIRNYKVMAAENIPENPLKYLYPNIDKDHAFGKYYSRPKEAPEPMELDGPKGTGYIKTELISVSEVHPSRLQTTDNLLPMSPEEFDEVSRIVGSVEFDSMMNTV

MDA-MB-231 [20] = assay: Induction of apoptosis in human MDA-MB-231 cells assessed as increase in Bax level at 1.5 to 3 uM by Western blotting analysis; assay type: functional, cell-based; conditions: dose 1.5-3 µM
MDA-MB-231 [21] = assay: Inhibition of STAT5 phosphorylation at Tyr694 residue in human MDA-MB-231 cells at 0.6 to 2.5 uM incubated for 24 hrs by Western blot analysis; assay type: cell-based; conditions: dose 0.6-2.5 µM
MDA-MB-231 [22] = assay: Induction of apoptosis in human MDA-MB-231 cells assessed as increase in cleaved PARP level at 1.5 to 3 uM by Western blotting analysis; assay type: functional, cell-based; conditions: dose 1.5-3 µM
MCF7 [23] = assay: Induction of ROS generation in NQO1-rich human MCF7 cells assessed as increase in intracellular ROS level by DCFH-DA staining based confocal microscopic analysis; assay type: functional, cell-based; conditions: dose 1.25-2.5 µM
MCF7 [24] = assay: Induction of DNA damage in human MCF7 cells at 1.25 uM incubated for 24 hrs in presence of DIC by fluorescence microscopy based alkaline comet assay; assay type: functional, cell-based
MDA-MB-468 [25] = assay: Inhibition of colony formation in human MDA-MB-468 cells at 3 uM incubated for 10 to 15 days by crystal violet staining based microscopic analysis; assay type: functional, cell-based; conditions: time 10-15 day
MDA-MB-468 [26] = assay: Induction of apoptosis in human MDA-MB-468 cells assessed as increase in cleaved-caspase 3 level at 1.5 to 3 uM by Western blotting analysis; assay type: functional, cell-based; conditions: dose 1.5-3 µM
[27] = biological target: T1, Signal transducer and activator of transcription 3; assay: Inhibition of STAT3 in human MDA-MB-231 cells assessed as downregulation of survivin expression measured after 24 hrs by Western blot analysis; assay type: cell-based; conditions: dose 0.6-2.5 µM
MDA-MB-468 [28] = assay: Induction of apoptosis in human MDA-MB-468 cells assessed as increase in cleaved PARP level at 1.5 to 3 uM by Western blotting analysis; assay type: functional, cell-based; conditions: dose 1.5-3 µM, time 24.0 hrs
MDA-MB-231 [29] = assay: Inhibition of colony formation in human MDA-MB-231 cells at 3 uM incubated for 10 to 15 days by crystal violet staining based microscopic analysis; assay type: functional, cell-based; conditions: time 10-15 day

O=C1C(=O)c2c(oc3c2CCN(CCN2CCCCC2)C3=O)-c2ccccc21
Activity (MDA-MB-231 [1]): Dose-dependent-effect | inhibition [2]: Dose-dependent-effect | Activity (MDA-MB-231 [3]): Dose-dependent-effect | inhibition [4]: Dose-dependent-effect | Activity (MDA-MB-468 [5]): Active | inhibition [6]: Active | Activity (MCF7 [7]): inactive | inhibition [8]: Dose-dependent-effect | Activity (MDA-MB-231 [9]): inactive | Activity (MDA-MB-231 [10]): inactive | Activity (MDA-MB-231 [11]): Active | Activity (MDA-MB-231 [12]): Active | Activity (MDA-MB-231 [13]): Active; Less Sensitivity Observed | inhibition [14]: Dose-dependent-effect | Activity (MDA-MB-231 [15]): Active | Activity (MCF7 [16]): Active | inhibition (Mus musculus): Active | Activity (MDA-MB-468 [17]): Active; Less Sensitivity Observed | Activity (MDA-MB-231 [18]): Active | inhibition [19]: inactive | Activity (MDA-MB-231 [20]): Active | inhibition (MDA-MB-231 [21]): inactive | Activity (MDA-MB-231 [22]): Active | Activity (MCF7 [23]): Dose-dependent-effect | Activity (MCF7 [24]): inactive | inhibition (MDA-MB-468 [25]): Active | Activity (MDA-MB-468 [26]): Active | inhibition [27]: Dose-dependent-effect | Activity (MDA-MB-468 [28]): Active | inhibition (MDA-MB-231 [29]): Active
